pKi: −log10 of the molar value. One block for each molecule: values may come before it.
Experiments:
[1] = target: T1, D3R (Homo sapiens, UniProt P35462); conditions: Table 1; ratio of binding Ki values D2R/D3R
[2] = tested on: D2R; conditions: at concentrations over 50 μM; cited from earlier work
[3] = target: T1, D3R; assay: β-arrestin recruitment assay; conditions: dopamine curve-shift assays, best fit by F-test
[4] = target: D2R long isoform (Homo sapiens, UniProt P14416); assay: β-arrestin recruitment assay; type: cell-based; conditions: dopamine curve-shift / inhibition of dopamine stimulation
Sequence of D2R long isoform (P14416 whole entry, canonical isoform): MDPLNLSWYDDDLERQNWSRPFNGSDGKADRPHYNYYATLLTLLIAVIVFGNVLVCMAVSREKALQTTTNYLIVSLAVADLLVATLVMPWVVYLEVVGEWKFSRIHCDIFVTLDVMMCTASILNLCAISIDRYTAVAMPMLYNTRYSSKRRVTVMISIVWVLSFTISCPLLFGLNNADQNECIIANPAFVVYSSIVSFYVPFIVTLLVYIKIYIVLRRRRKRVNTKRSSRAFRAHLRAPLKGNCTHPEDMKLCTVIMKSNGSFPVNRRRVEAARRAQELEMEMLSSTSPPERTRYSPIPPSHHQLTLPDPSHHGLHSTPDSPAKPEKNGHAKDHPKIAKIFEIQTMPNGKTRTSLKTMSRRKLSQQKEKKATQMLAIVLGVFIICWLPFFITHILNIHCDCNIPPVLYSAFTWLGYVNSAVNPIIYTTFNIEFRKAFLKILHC

[5] = target: D3R; conditions: read-out: D3R receptor binding affinities; cited from earlier work
[6] = tested on: D2R; conditions: 6 compared to 5; cited from earlier work

T1 sequence (P35462 whole entry): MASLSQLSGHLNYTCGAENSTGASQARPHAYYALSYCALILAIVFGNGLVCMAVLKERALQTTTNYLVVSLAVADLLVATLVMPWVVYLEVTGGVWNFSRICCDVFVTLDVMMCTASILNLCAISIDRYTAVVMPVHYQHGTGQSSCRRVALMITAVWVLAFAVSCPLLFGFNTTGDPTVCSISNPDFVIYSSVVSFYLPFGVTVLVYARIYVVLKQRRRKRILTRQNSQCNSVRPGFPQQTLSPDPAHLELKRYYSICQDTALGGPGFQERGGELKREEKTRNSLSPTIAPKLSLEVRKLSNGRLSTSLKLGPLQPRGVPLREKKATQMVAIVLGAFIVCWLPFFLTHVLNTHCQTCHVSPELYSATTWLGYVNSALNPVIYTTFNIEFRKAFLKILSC

Compound: N#Cc1ccc2c(c1)CNCC2 [Compound 9b, 7-cyano-1,2,3,4-tetrahydroisoquinoline]
D2/D3 [1]: 7.5–9.1

Compound: CC(C)NC(=O)c1cc2ccccc2[nH]1 [Compound 13b]
mode of action at the D2R [2]: allosteric antagonist of the D2R with modest negative cooperativity with dopamine

mechanism of antagonism at the D3R [3]: competitive antagonist
mechanism of antagonism at the D2R [4]: competitive antagonist
Compound: CCN1CCCC1CNC(=O)c1cc(S(N)(=O)=O)ccc1OC (stereo not shown) [sulpiride]

Compound: N#Cc1cccc(N2CCNCC2)c1 [Compound 8, 3-(Piperazin-1-yl)benzonitrile]
D2/D3 [1]: 7.5–9.1

Compound: O=C(NC/C=C/CN1CCN(c2cccc(Cl)c2Cl)CC1)c1ccc(-c2ccccn2)cc1 [Compound 6]
pKi [5]: ~9.00
lower affinity at D2R [6]: ~ 2 fold

Reference: publication PMC5325712 (Journal of medicinal chemistry, 2017)
